These results are taken from patent publication EP4744682A1, “NOVEL CERIUM OXIDE NANOCOMPOSITE WITH ENHANCED BIOSTABILITY AND USE THEREOF” (Cenyx Biotech Inc., priority 2023, dated 2025).

In the data set the test system is Hepa-1C1C7 hepatocyte cells. Nature of the data set: Survival of pyrogallol-treated hepatocytes, NRU assay. Format: cell-based. To be noted: 500µM pyrogallol alone; 3 hours; compared to pyrogallol-untreated control. As for the experimental part:
Inflammatory liver disease is a condition where the liver cannot perform its normal functions due to liver damage, metabolic disorders, and accumulation of toxic substances. The present inventors sought to verify the therapeutic effect of the cerium oxide nanocomplex of the present invention on inflammatory liver disease. To induce the disease, Hepa-1C1C7 hepatocyte cells were treated with 500µM pyrogallol, a cytotoxic substance, to induce acute inflammatory liver disease. Simultaneously, the cells were treated with the cerium oxide nanocomplex of the present invention at concentrations ranging from 0.01 to 5µM. Three hours after treatment, the survival rate of Hepa-lclc7 cells was measured using the NRU assay, a biochemical analysis method that measures cell survival by allowing the neutral red dye to be absorbed by living cells. […] When treated with the cerium oxide nanocomplex of the present invention, survival rates of 74.55% at a minimum concentration of 0.01 µM and approximately 93.19% at a maximum concentration of 5µM were observed. This represents an increase in survival rate of at least 47.81% to a maximum of 84.78% compared to cells treated with pyrogallol alone (FIG. 13).

As to `Oc1cccc(O)c1O` [pyrogallol], the “survival rate of cells” value is on record as “approximately 50.43%”.
